Source: PubChem BioAssay (NCI)
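Assay format: 96-well plates, 48-hour exposure. Abbreviation: GI50, concentration required for 50% inhibition of growth. TGI: concentration producing complete growth inhibition.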

Assays:
Assay in all cases: NCI tumour cell line growth inhibition, 48 h
UACC-62 melanoma = test system: UACC-62 melanoma
KM12 colon = test system: KM12 colon
HOP-62 NSCLC = test system: HOP-62 NSCLC
HCT-116 colon = test system: HCT-116 colon
SK-MEL-2 melanoma = test system: SK-MEL-2 melanoma
SK-OV-3 ovarian = test system: SK-OV-3 ovarian
HOP-92 NSCLC = test system: HOP-92 NSCLC
NCI/ADR-RES ovarian = test system: NCI/ADR-RES ovarian
SK-MEL-5 melanoma = test system: SK-MEL-5 melanoma
DU-145 prostate = test system: DU-145 prostate
SF-539 CNS = test system: SF-539 CNS
HS 578T breast = test system: HS 578T breast
IGROV1 ovarian = test system: IGROV1 ovarian
SF-268 CNS = test system: SF-268 CNS
SN12C renal = test system: SN12C renal
NCI-H226 lung = test system: NCI-H226 lung
OVCAR-5 ovarian = test system: OVCAR-5 ovarian
RPMI-8226 leukemia = test system: RPMI-8226 leukemia
RXF 393 renal = test system: RXF 393 renal
UACC-257 melanoma = test system: UACC-257 melanoma
SR leukemia = test system: SR leukemia
SF-295 CNS = test system: SF-295 CNS
A498 renal = test system: A498 renal
HT29 colon = test system: HT29 colon
U251 CNS = test system: U251 CNS
HL-60(TB) leukemia = test system: HL-60(TB) leukemia
TK-10 renal = test system: TK-10 renal
A549 NSCLC = test system: A549 NSCLC
COLO 205 colon = test system: COLO 205 colon
ACHN renal = test system: ACHN renal
HCT-15 colon = test system: HCT-15 colon
MDA-MB-435 = test system: MDA-MB-435
SNB-19 CNS = test system: SNB-19 CNS
OVCAR-3 ovarian = test system: OVCAR-3 ovarian
786-0 renal = test system: 786-0 renal
NCI-H522 lung = test system: NCI-H522 lung
M14 melanoma = test system: M14 melanoma
BT-549 breast = test system: BT-549 breast
CAKI-1 renal = test system: CAKI-1 renal
MDA-MB-231 breast = test system: MDA-MB-231 breast
HCC-2998 colon = test system: HCC-2998 colon
EKVX NSCLC = test system: EKVX NSCLC
CCRF-CEM leukemia = test system: CCRF-CEM leukemia
SW-620 colon = test system: SW-620 colon
K-562 leukemia = test system: K-562 leukemia
NCI-H23 lung = test system: NCI-H23 lung
UO-31 renal = test system: UO-31 renal
MALME-3M melanoma = test system: MALME-3M melanoma
LOX IMVI melanoma = test system: LOX IMVI melanoma
OVCAR-4 ovarian = test system: OVCAR-4 ovarian
NCI-H460 lung = test system: NCI-H460 lung
PC-3 prostate = test system: PC-3 prostate
MOLT-4 leukemia = test system: MOLT-4 leukemia
MCF7 breast = test system: MCF7 breast
T-47D breast = test system: T-47D breast
OVCAR-8 ovarian = test system: OVCAR-8 ovarian
SK-MEL-28 melanoma = test system: SK-MEL-28 melanoma

Cc1ccc(C2=Nc3c(N)nc(N)nc3NC(c3cccc(Nc4ccnc5cc(C(F)(F)F)ccc45)c3)C2)cc1 (centres undefined)
GI50 (UACC-62 melanoma): 1.7 µM | TGI (UACC-62 melanoma): 3.46 µM | GI50 (KM12 colon): 1.71 µM | TGI (KM12 colon): 3.63 µM | GI50 (HOP-62 NSCLC): 2.66 µM | TGI (HOP-62 NSCLC): 9.4 µM | GI50 (HCT-116 colon): 1.61 µM | TGI (HCT-116 colon): 2.96 µM | GI50 (SK-MEL-2 melanoma): 1.95 µM | TGI (SK-MEL-2 melanoma): 4.05 µM | GI50 (SK-OV-3 ovarian): 3.56 µM | TGI (SK-OV-3 ovarian): 13.4 µM | GI50 (HOP-92 NSCLC): 1.35 µM | TGI (HOP-92 NSCLC): 2.9 µM | GI50 (NCI/ADR-RES ovarian): 2.29 µM | TGI (NCI/ADR-RES ovarian): 6.15 µM | GI50 (SK-MEL-5 melanoma): 1.6 µM | TGI (SK-MEL-5 melanoma): 2.98 µM | GI50 (DU-145 prostate): 2.78 µM | TGI (DU-145 prostate): 6.52 µM | GI50 (SF-539 CNS): 1.77 µM | TGI (SF-539 CNS): 3.49 µM | GI50 (HS 578T breast): 1.66 µM | TGI (HS 578T breast): 4.46 µM | GI50 (IGROV1 ovarian): 1.89 µM | TGI (IGROV1 ovarian): 4.77 µM | GI50 (SF-268 CNS): 1.93 µM | TGI (SF-268 CNS): 4.19 µM | GI50 (SN12C renal): 2.03 µM | TGI (SN12C renal): 4.71 µM | GI50 (NCI-H226 lung): 4.88 µM | TGI (NCI-H226 lung): 22.3 µM | GI50 (OVCAR-5 ovarian): 3.69 µM | TGI (OVCAR-5 ovarian): 15.7 µM | GI50 (RPMI-8226 leukemia): 1.9 µM | TGI (RPMI-8226 leukemia): 4.7 µM | GI50 (RXF 393 renal): 1.41 µM | TGI (RXF 393 renal): 2.87 µM | GI50 (UACC-257 melanoma): 2.12 µM | TGI (UACC-257 melanoma): 4.42 µM | GI50 (SR leukemia): 1.53 µM | TGI (SR leukemia): 5.44 µM | GI50 (SF-295 CNS): 1.56 µM | TGI (SF-295 CNS): 3.17 µM | GI50 (A498 renal): 2.15 µM | TGI (A498 renal): 8.02 µM | GI50 (HT29 colon): 2.46 µM | TGI (HT29 colon): 5.89 µM | GI50 (U251 CNS): 1.82 µM | TGI (U251 CNS): 3.62 µM | GI50 (HL-60(TB) leukemia): 2.38 µM | TGI (HL-60(TB) leukemia): 5.54 µM | GI50 (TK-10 renal): 4.11 µM | TGI (TK-10 renal): 16.5 µM | GI50 (A549 NSCLC): 2.88 µM | TGI (A549 NSCLC): 10.7 µM | GI50 (COLO 205 colon): 1.71 µM | TGI (COLO 205 colon): 3.68 µM | GI50 (ACHN renal): 2.8 µM | TGI (ACHN renal): 11.1 µM | GI50 (HCT-15 colon): 1.76 µM | TGI (HCT-15 colon): 3.57 µM | GI50 (MDA-MB-435): 1.2 µM | TGI (MDA-MB-435): 2.63 µM | GI50 (SNB-19 CNS): 2.27 µM | TGI (SNB-19 CNS): 7.08 µM | GI50 (OVCAR-3 ovarian): 1.78 µM | TGI (OVCAR-3 ovarian): 3.53 µM | GI50 (786-0 renal): 1.51 µM | TGI (786-0 renal): 2.9 µM | GI50 (NCI-H522 lung): 1.56 µM | TGI (NCI-H522 lung): 3.49 µM | GI50 (M14 melanoma): 1.72 µM | TGI (M14 melanoma): 3.43 µM | GI50 (BT-549 breast): 1.66 µM | TGI (BT-549 breast): 3.36 µM | GI50 (CAKI-1 renal): 2.29 µM | TGI (CAKI-1 renal): 8.71 µM | GI50 (MDA-MB-231 breast): 1.67 µM | TGI (MDA-MB-231 breast): 3.26 µM | GI50 (HCC-2998 colon): 1.77 µM | TGI (HCC-2998 colon): 3.33 µM | GI50 (EKVX NSCLC): 2.91 µM | TGI (EKVX NSCLC): 11.5 µM | GI50 (CCRF-CEM leukemia): 2.21 µM | TGI (CCRF-CEM leukemia): 5.73 µM | GI50 (SW-620 colon): 1.7 µM | TGI (SW-620 colon): 3.52 µM | GI50 (K-562 leukemia): 1.37 µM | TGI (K-562 leukemia): 6.98 µM | GI50 (NCI-H23 lung): 2.18 µM | TGI (NCI-H23 lung): 5.58 µM | GI50 (UO-31 renal): 1.51 µM | TGI (UO-31 renal): 3.03 µM | GI50 (MALME-3M melanoma): 1.86 µM | TGI (MALME-3M melanoma): 3.87 µM | GI50 (LOX IMVI melanoma): 1.74 µM | TGI (LOX IMVI melanoma): 3.3 µM | GI50 (OVCAR-4 ovarian): 3.02 µM | TGI (OVCAR-4 ovarian): 14 µM | GI50 (NCI-H460 lung): 1.87 µM | TGI (NCI-H460 lung): 3.68 µM | GI50 (PC-3 prostate): 1.59 µM | TGI (PC-3 prostate): 4.38 µM | GI50 (MOLT-4 leukemia): 2.43 µM | TGI (MOLT-4 leukemia): 6.43 µM | GI50 (MCF7 breast): 1.84 µM | TGI (MCF7 breast): 4.99 µM | GI50 (T-47D breast): 2.22 µM | TGI (T-47D breast): 8.73 µM | GI50 (OVCAR-8 ovarian): 2.31 µM | TGI (OVCAR-8 ovarian): 5.6 µM | GI50 (SK-MEL-28 melanoma): 1.7 µM | TGI (SK-MEL-28 melanoma): 3.33 µM
